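Tested at 5 concentrations; 48 h exposure; 96-well plates; endpoints linearly interpolated, else capped at highest concentration. TGI denotes the concentration required for complete inhibition of growth.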
Legend:
Test in all cases: growth of human tumour cells (NCI), 48 h
[1] = system: SK-MEL-2 melanoma
[2] = system: SR leukemia
[3] = system: SW-620 colon
[4] = system: HT29 colon
[5] = system: A549 NSCLC
[6] = system: CCRF-CEM leukemia
[7] = system: CAKI-1 renal
[8] = system: TK-10 renal
[9] = system: HCC-2998 colon
[10] = system: SK-MEL-5 melanoma

| Structure (SMILES) | TGI [1] [µM] | TGI [2] [µM] | TGI [3] [µM] | TGI [4] [µM] | TGI [5] [µM] | TGI [6] [µM] | TGI [7] [µM] | TGI [8] [µM] | TGI [9] [µM] | TGI [10] [µM] |
| --- | --- | --- | --- | --- | --- | --- | --- | --- | --- | --- |
| C/C(N=Nc1nc2ccccc2o1)=C1/C=CC=CN1O | > 100 | 19.5 | > 100 | > 100 | > 100 | > 100 | 29 | 34.9 | 24.5 | > 100 |
| O=C1C[C@H](c2ccccc2)C2(C(=O)c3ccccc3C2=O)[C@H](c2ccccc2)C1 | > 100 | > 100 |  | > 100 |  | > 100 | > 100 |  | > 100 | > 100 |
| O=C(O)/C=C/C(=O)O | > 100 | > 100 | > 100 | > 100 | > 100 | > 100 | > 100 | > 100 | > 100 | > 100 |
| CC(=O)NC1=CC(=O)c2cc(C)cc(O)c2C1=O | 17.9 | 37.3 | 10.6 | 46.9 | 19 | 12.9 | 42.9 | 45.9 | 5.69 | 2.65 |
| C#CCOC(=O)C(N)CCCN=C(N)N (configuration not stated) | > 100 | > 100 | > 100 | > 100 | > 100 | > 100 | > 100 | > 100 | > 100 | > 100 |
| CC(C)C(C/C=C1\CC(CO)(COC(=O)CC(C(C)C)C(C)C)OC1=O)C(C)C (configuration not stated) | 38.2 | 31.6 | 21.6 | 32.6 | 18.8 | 36.2 | 20.3 | 21.8 | 18.7 | 23 |
| COC(=O)n1c(CBr)c(Br)c2ccccc21 | 47 | 80.6 | > 100 | > 100 | > 100 | 70.2 | 49.9 | 94 | > 100 | > 100 |
| Cc1cc([N+](=O)[O-])ccc1N=NC(=O)NNc1ccc([N+](=O)[O-])cc1C | 43.6 | 47.6 | 33.7 | 45.6 | 31.5 | 41.7 | 29.3 | 31.5 | 31 | 26.7 |
| CN(C)CCOC1(CC2CCCCC2)CCC(C(C)(C)C)CC1 (configuration not stated) | 13.7 | 4.57 | 12.7 | 7.02 | 17.6 | 7.62 | 19.1 | 25.5 | 11.7 | 4.8 |
| CC(C)(C)c1cc(C2COC(=O)COCC(=O)OCCOCCOCCO2)cc(C(C)(C)C)c1O (configuration not stated) | 90.3 | > 100 | > 100 | > 100 | > 31.6 | > 100 | 51.3 | 43.7 | 27.9 | > 100 |
| CCOC(=O)C(NCc1cccc(C(F)(F)F)c1)(NC(=O)c1ccccc1)C(F)(F)F (configuration not stated) | > 100 | > 100 | > 100 | 48.5 | > 100 | > 100 | 41.2 | > 100 | > 100 | > 100 |
| Cc1cccc2c1C/C(=C\c1cccc(C)c1C(=O)O)C2=O | > 100 | > 100 | > 100 | > 100 | > 100 | > 100 | > 100 | > 100 | > 100 | > 100 |
| O=c1[nH]c2ccccc2c2oc(-c3ccccc3)nc12 | > 100 | 70.7 | 58.1 | > 100 | > 100 | 52.6 | 34.4 | > 100 | > 100 | > 100 |
| CN(C)CCn1c(=O)c2ccc3c4c(nn3CCN(C)C)c3ccccc3n(c1=O)c24 | 1.17 | 1.85 | 32 | 2.23 | 4.38 | 10.9 | 0.52 | 2.35 | 0.534 | 1.42 |
| CCOc1cc(C2SCC(=O)N2c2nc3cc4sc(N5C(=O)CSC5c5ccc(O)c(OCC)c5)nc4cc3s2)ccc1O (configuration not stated) | > 100 | > 100 | > 100 | > 100 | > 100 | > 84.2 | > 100 | > 100 | > 100 | > 100 |
| CCOC(=O)C(=Cn1c(=S)[nH]c2ccc([N+](=O)[O-])cc21)C(=O)OCC | > 100 | > 100 | > 100 | > 100 | > 100 | > 100 | > 100 | > 100 | > 100 | > 100 |

Reference: PubChem BioAssay (NCI)
